Results published in patent EP2975030B1, “DIHYDROPYRIDAZINE-3,5-DIONE DERIVATIVE” (Chugai Seiyaku Kabushiki Kaisha, priority 2013, dated 2014).

Assays:
[1] = system: rat small-intestinal brush border membrane vesicles; assay: Inhibitory effect on 33PO4 uptake into rat small-intestinal brush border membrane vesicles (rapid filtration method); type: biochemical, Wistar female rat; conditions: 1 µM test compound, 33PO4 uptake into rat small-intestinal BBMVs, 60 seconds
Outline: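 33PO4 uptake into rat small-intestinal brush border membrane vesicles measured by rapid filtration. Reactions were stopped with ice-cold buffer (110 mM NaCl, 1 mM KH2PO4, 10 mM HEPES pH 7.5), filtered and washed. Vesicle-associated radioactivity was counted by liquid scintillation.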

[2] = system: adenine-induced renal failure rat; assay: Suppressive effect on rise in serum phosphorus concentration of adenine-induced renal failure rat (0.05% in feed, 8 days); type: in vivo, Wistar male rat; conditions: rate of suppression of a rise in serum phosphorus concentration, 0.05% of mass concentration in feed
Procedure: Test Example 6: Suppressive effect on rise in serum phosphorus concentration of adenine-induced renal failure rat
Each adenine-induced renal failure rat was prepared in the same way as in Test Example 5. Each test compound was mixed at a ratio of 0.05% of mass concentration with feed. The animal was fed with a given amount of the feed for 8 days. A group given feed non-supplemented with a test compound was used as a reference pathological group, and an adenine-unadministered group given feed non-supplemented with a test compound was used as a normal group. 8 days after the start of administration of the test compound, blood was collected from the jugular vein, and serum was collected. Serum phosphorus concentrations were measured by the Fiske-Subbarow method. The rate of suppression of a rise in serum phosphorus concentration was determined according to the following expression: Rate (%) of supression of a rise in serum phosphorus concentration = (1−[(Serumphosphorusconcentrationofthetestcompound−treatedpathologicalgroup)−(Serumphosphorusconcentrationofthenormalgroup)]/[(Serumphosphorusconcentrationofthereferencepathologicalgroup)−(Serumphosphorusconcentrationofthenormalgroup)]) × 100 [formula]
As a result, each test compound was confirmed to have a suppressive effect on a rise in serum phosphorus concentration. […]

[3] = system: human NaPi-IIb; assay: Inhibitory effect on 33PO4 uptake into human NaPi-IIb-expressing cell; type: cell-based; conditions: CHO cells stably expressing human NaPi-IIb, 1, 3, 10, or 30 µM
Procedure: CHO cells were transfected with human NaPi-IIb expression plasmids, and a stably human NaPi-IIb-expressing cell line was obtained using G418. The human NaPi-IIb-expressing cells were inoculated to a 96-well plate and incubated overnight in a CO2 incubator. The medium was replaced with buffer A (145 mM choline chloride, 3 mM KCl, 1 mM CaCl2, 0.5 mM MgCl2, 5 mM glucose, and 5 mM MES (pH 6.5)) and then replaced with buffer B (145 mM NaCl, 3 mM KCl, 1 mM CaCl2, 0.5 mM MgCl2, 5 mM glucose, and 5 mM MES (pH 6.5)) supplemented with each test compound at a final concentration of 1,3, 10, or 30 µM or buffer A supplemented with DMSO. After a given time, a 1/20 volume of buffer A containing ^33PO4 was added thereto and reacted at room temperature. After washing with ice-cold buffer A, a liquid scintillator was added to each reaction mixture, and the amount of ^33PO4 uptake was measured using TopCount. The rate of inhibition was determined according to the following expression: [formula]

[4] = system: adenine-induced renal failure rat; assay: Suppressive effect on rise in serum phosphorus concentration of adenine-induced renal failure rat (0.1% in feed, 3 days); type: in vivo, Wistar male rat; conditions: feed or water, 72 h, rate of suppression of a rise in serum phosphorus concentration, 0.1% of mass concentration in feed
Description: Test Example 5: Suppressive effect on rise in serum phosphorus concentration of adenine-induced renal failure rat Adenine was forcedly administered orally to each Wistar male rat (7-8 weeks old) to impair renal functions and thereby prepare a hyperphosphatemia model ([…], Nagano N, Burke SK, Fukushima N. Sevelamer hydrochloride prevents ectopic calcification and renal osteodystrophy in chronic renal failure rats. Kidney Int. 2003 Aug; 64 (2): 441-50). Each test compound was mixed at a ratio of 0.1% of mass concentration with feed. The animal was fed with a given amount of the feed for 3 days. A group given feed non-supplemented with a test compound was used as a reference pathological group, and an adenine-unadministered group given feed non-supplemented with a test compound was used as a normal group. 3 days after the start of administration of the test compound, blood was collected from the jugular vein, and serum was collected. Serum phosphorus concentrations were measured by the Fiske-Subbarow method. The rate of suppression of a rise in serum phosphorus concentration was determined according to the following expression: Rate (%) of suppression of a rise in serum phosphorus concentration = (1-[([…]-treatedpathologicalgroup); -(Serumphosphorusconcentrationofthenormalgroup)]/; [(Serumphosphorusconcentrationofthereferencepathologicalgroup)-(Serumphosphorusconcentrationofthenormalgroup)]) × 100 [formula] As a result, each test compound was confirmed to have a suppressive effect on a rise in serum phosphorus concentration. […]

| SMILES | Rate of uptake inhibition (%) (1 µM) [1] | Rate of inhibition (%) [2] [%] | Rate of uptake inhibition (%) (1 µM) ([1]; 1 µM) | IC50 [3] [µM] | inhibition in vivo at 0.1 %, 0.1 % in feed [4] [%] |
| --- | --- | --- | --- | --- | --- |
| CN(C)CC(C)(C)COc1ccc(CN2C(=O)C(C(=O)Nc3ccc(C(F)(F)F)cc3-c3cc(C(F)(F)F)ncn3)=C(O)C3(CCCC3)N2C)c(F)c1F [Example 414, 7-(4-(3-(Dimethylamino)-2,2-dimethylpropoxy)-2,3-difluorobenzyl)-10-hydroxy-6-methyl-8-oxo-N-(4-(trifluoromethyl)-2-(6-(trifluoromethyl)pyrimidin-4-yl)phenyl)-6,7-diazaspiro[4.5]dec-9-ene-9-carboxamide] | 27 | 37 |  |  |  |
| CN1N(Cc2ccc(OCCNCCS(=O)(=O)O)c(F)c2F)C(=O)C(C(=O)Nc2ccc(C(F)(F)F)cc2-c2cc(C(F)(F)F)ncn2)=C(O)C12CCCC2 [Example 436, 2-[2-[2,3-Difluoro-4-[[10-hydroxy-6-methyl-8-oxo-9-[[4-(trifluoromethyl)-2-[6-(trifluoromethyl)pyrimidin-4-yl]phenyl]carbamoyl]-6,7-diazaspiro[4.5]dec-9-en-7-vl]methyl]phenoxy]ethylamino]ethanesulfonic acid] |  |  | 12 | 14 |  |
| CN(C[C@H](O)[C@@H](O)[C@H](O)[C@H](O)CO)C(=O)CCCOc1ccc(CN2C(=O)C(C(=O)Nc3ccc(C(F)(F)F)cc3-c3cc(C(F)(F)F)ncn3)=C(O)C3(CCCC3)N2C)c(F)c1F [Example 418, 7-[[2,3-Difluoro-4-[4-[methyl-[(2S,3R,4R,5R)-2,3,4,5,6-pentahydroxyhexyl]amino]-4-oxobutoxy]phenyl]methyl]-10-hydroxy-6-methyl-8-oxo-N-[4-(trifluoromethyl)-2-[6-(trifluoromethyl)pyrimidin-4-yl]phenyl]-6,7-diazaspiro[4.5]dec-9-ene-9-carboxamide] | 29 | 38 |  |  |  |
| CN1N(Cc2ccc(OCCN3CCOCC3)c(F)c2F)C(=O)C(C(=O)Nc2ccc(C(F)(F)F)cc2-c2cc(C(F)(F)F)ncn2)=C(O)C12CCC2 [Example 317, 6-[[2,3-Difluoro-4-(2-morpholin-4-ylethoxy)phenyl]methyl]-9-hydroxy-5-methyl-7-oxo-N-[4-(trifluoromethyl)-2-[6-(trifluoromethyl)pyrimidin-4-yl]phenyl]-5,6-diazaspiro[3.5]non-8-ene-8-carboxamide] | 57 |  |  |  | 22 |
| CN1N(Cc2ccc(OCCCCC(=O)O)c(F)c2F)C(=O)C(C(=O)Nc2ccc(C(F)(F)F)cc2-c2cc(C(F)(F)F)ncn2)=C(O)C12CCCC2 [Example 333, 5-[2,3-Difluoro-4-[[10-hydroxy-6-methyl-8-oxo-9-[[4-(trifluoromethyl)-2-[6-(trifluoromethyl)pyrimidin-4-yl]phenyl]carbamoyl]-6,7-diazaspiro[4.5]dec-9-en-7-yl]methyl]phenoxy]pentanoic acid] | 29 |  |  |  | 8 |
| C[C@]12CCCN1N(Cc1ccc(OCCCOC[C@H](O)CO)c(F)c1F)C(=O)C(C(=O)Nc1ccc(C(F)(F)F)cc1-c1ccc(C(F)(F)F)nc1)=C2O [Example 147, (4aR)-1-[[4-[3-[(2R)-2,3-Dihydroxypropoxy]propoxy]-2,3-difluorophenyl]methyl]-4-hydroxy-4a-methyl-2-oxo-N-[4-(trifluoromethyl)-2-[6-(trifluoromethyl)pyridin-3-yl]phenyl]-6,7-dihydro-5H-pyrrolo[1,2-b]pyridazine-3-carboxamide] | 57 |  |  |  | 35 |
| CN(C)S(=O)(=O)N1CCC(c2cc(C(F)(F)F)ccc2NC(=O)C2=C(O)[C@@]3(C)CCCN3N(Cc3cccc(F)c3F)C2=O)CC1 [Example 110] | 57 |  |  | 19.8 |  |
| C[C@]12CCCN1N(Cc1ccc(CN3CCOCC3)c(F)c1F)C(=O)C(C(=O)Nc1ccc(C(F)(F)F)cc1-c1ccc(C(F)(F)F)nc1)=C2O.Cl [Example 164, (4aR)-1-[[2,3-Difluoro-4-(morpholin-4-ylmethyl)phenyl]methyl]-4-hydroxy-4a-methyl-2-oxo-N-[4-(trifluoromethyl)-2-[6-(trifluoromethyl)pyridin-3-yl]phenyl]-6,7-dihydro-5H-pyrrolo[1,2-b]pyridazine-3-carboxamide; hydrochloride] | 64 |  |  |  | 14 |
| C[C@]12CCCN1N(Cc1cccc(Cl)c1F)C(=O)C(C(=O)Nc1cc(F)c(Br)c(F)c1)=C2O [Example 196, (4aR)-N-(4-Bromo-3,5-difluorophenyl)-1-[(3-chloro-2-fluorophenyl)methyl]-4-hydroxy-4a-methyl-2-oxo-6,7-dihydro-5H-pyrrolo[1,2-b]pyridazine-3-carboxamide] | 90 |  |  |  | 35 |
| COCCN(C)CCOc1ccc(CN2C(=O)C(C(=O)Nc3ccc(C(F)(F)F)cc3-c3cc(C(F)(F)F)ncn3)=C(O)C3(CCCC3)N2C)c(F)c1F [Example 14, 7-[[2,3-Difluoro-4-[2-[2-methoxyethyl(methyl)amino]ethoxy]phenyl]methyl]-10-hydroxy-6-methyl-8-oxo-N-[4-(trifluoromethyl)-2-[6-(trifluoromethyl)pyrimidin-4-yl]phenyl]-6,7-diazaspiro[4.5]dec-9-ene-9-carboxamide] | 29 |  |  |  | 39 |
| C[C@]12CCCN1N(Cc1ccc(C#CCCCC(=O)O)c(F)c1F)C(=O)C(C(=O)Nc1ccc(C(F)(F)F)cc1-c1cc(C(F)(F)F)ncn1)=C2O [Example 129, 6-[4-[[(4aR)-4-Hydroxy-4a-methyl-2-oxo-3-[[4-(trifluoromethyl)-2-[6-(trifluoromethyl)pyrimidin-4-yl]phenyl]carbamoyl]-6,7-dihydro-5H-pyrrolo[1,2-b]pyridazin-1-yl]methyl]-2,3-difluorophenyl]hex-5-ynoic acid] | 63 |  |  |  | 17 |
